Like-named read-outs stand apart in the source and are kept apart here.
Experiments:
[1] = Vapor-liquid equilibrium still, trichloroethylene-isobutanol azeotrope with extractive distillation agent; format: physicochemical
Description: (§1) The data in Tables 2, 3, 5, 7, 8, 10 and 11 was obtained in a vapor-liquid equilibrium still. In every case, the starting mixture was the trichloroethylene-butanol azeotrope. The relative volatilities are listed for each of the agents.
Seventy grams of the trichloroethylene-isobutanol azeotrope and 30 grams of n-octanol were charged to the vapor-liquid equilibrium still and refluxed for five hours.

[2] = Vapor-liquid equilibrium still, trichloroethylene-n-butanol azeotrope with extractive distillation agent; format: physicochemical
[3] = Vapor-liquid equilibrium still, t-butanol-trichloroethylene azeotrope with extractive distillation agent; format: physicochemical; conditions: for Relative Volatility: trichloroethylene from t-butanol, Table 10
Description: as §1
Seventy grams of the t-butanol-trichloroethylene azeotrope and 30 grams of n-butyl acetate were charged to the vapor-liquid equilibrium still and refluxed for fourteen hours.

[4] = Vapor-liquid equilibrium still, trichloroethylene-2-butanol azeotrope with extractive distillation agent; format: physicochemical; conditions: trichloroethylene from 2-butanol, Table 7
Description: as §1
Seventy grams of the trichloroethylene-2-butanol azeotrope and 30 grams of 2-methyl-1-pentanol were charged to the vapor-liquid equilibrium still and refluxed for two hours.

[5] = Glass perforated plate rectification column (7.3 theoretical plates), trichloroethylene / isobutanol; format: physicochemical
Description: The overhead analysis was 97.7% trichloroethylene, 2.3% isobutanol and the bottoms analysis was 84.8% trichloroethylene, 15.2% isobutanol. This gives an average relative volatility of 1.31 for each theoretical plate.

[6] = Method: A solution comprising 170 grams of trichloroethylene and 30 grams of t-butanol was placed in the stillpot of the 7.3 theoretical plate glass perforated plate rectification column. When refluxing began, an extractive agent comprising n-butyl acetate was pumped into the column at a rate of 15 ml/min. The temperature of the extractive agent as it entered the column was 85° C. After establishing the feed rate of the extractive agent, the heat input to the trichloroethylene-t-butanol in the stillpot was adjusted to give a total reflux rate of 40 ml/min. After two hours of operation, the overhead and bottoms samples were collected and analysed.
[7] = trichloroethylene from isobutanol, Table 5
[8] = trichloroethylene from n-butanol, Table 2
[9] = Example 7, refluxed fourteen hours
[10] = bottoms, 2 hrs, listed as n-butyl acetate
[11] = overhead, 2 hrs, listed as n-butyl acetate

## CCCCCCCCCO [Nonyl alcohol]
[1]; [7]
  Relative Volatility: 3.8

## CC(C)CC(=O)CC(C)C [2,6-Dimethyl-4-heptanone]
[2]; [8]
  Relative Volatility: 1.35

## CCCCCC(=O)CC [3-Octanone]
[2]; [8]
  Relative Volatility: 1.35

## CCCCC(=O)CC [3-Heptanone]
[3]
  Relative Volatility: 1.35

## CCCCCCCCCO [n-Nonyl alcohol]
[2]; [8]
  Relative Volatility: 2.5

## OCCCc1ccccc1 [3-Phenyl-1-propanol]
[4]
  Relative Volatility: 1.65

## CCCCCCO [n-Hexyl alcohol]
[2]; [8]
  Relative Volatility: 3.1

## OCCc1ccccc1 [Phenethyl alcohol]
[1]; [7]
  Relative Volatility: 1.55
[2]; [8]
  Relative Volatility: 2.5

## CCC(CC)CO [2-Ethyl butanol]
[4]
  Relative Volatility: 1.85

## OCC1CCCO1 (centres unmarked) [Tetrahydrofurfuryl alcohol]
[4]
  Relative Volatility: 1.65
[1]; [7]
  Relative Volatility: 2.4
[2]
  Relative Volatility: 2.2

## CC(=O)CCC(C)C [5-Methyl-2-hexanone]
[3]
  Relative Volatility: 1.3
[2]; [8]
  Relative Volatility: 1.6

## CCCC(=O)CC [3-Hexanone]
[3]
  Relative Volatility: 1.55

## CCCOC(C)=O [n-Propyl acetate]
[3]
  Relative Volatility: 2.9

## CC(=O)OCC(C)C [Isobutyl acetate]
[3]
  Relative Volatility: 1.4

## CCCCCCC(C)O (centres unmarked) [2-Octanol]
[1]; [7]
  Relative Volatility: 2.7

## CC(C)COC(=O)C(C)C [Isobutyl isobutyrate]
[3]
  Relative Volatility: 1.45
[2]
  Relative Volatility: 1.5

## CC(=O)CC(C)(C)O [Diacetone alcohol]
[4]
  Relative Volatility: 1.45
[1]; [7]
  Relative Volatility: 1.3

## CC(=O)OCCC(C)C [Isoamyl acetate]
[3]
  Relative Volatility: 1.5

## CCCCCCCO [Heptyl alcohol]
[4]
  Relative Volatility: 1.55
[1]; [7]
  Relative Volatility: 1.95

## OCc1ccccc1 [Benzyl alcohol]
[1]; [7]
  Relative Volatility: 2.0
[2]; [8]
  Relative Volatility: 3.5

## CCCC(=O)OCC [Ethyl butyrate]
[3]
  Relative Volatility: 1.5

## CC(=O)C(C)C [Methyl isopropyl ketone]
[3]
  Relative Volatility: 1.3

## CCCCCCCCO [n-Octanol]
[5]; 1 hr
  Relative Volatility (per theoretical plate): 1.275
[5]; 2 hrs
  Relative Volatility (average, per theoretical plate): 1.31
[5]; bottoms, 1 hr
  Weight % C2 H Cl3: 84.0%
  Weight % Isobutanol: 16.0%
[5]; bottoms, 2 hrs
  Weight % C2 H Cl3: 84.8%
  Weight % Isobutanol: 15.2%
[5]; overhead, 1 hr
  Weight % C2 H Cl3: 96.9%
  Weight % Isobutanol: 3.1%
[5]; overhead, 2 hrs
  Weight % C2 H Cl3: 97.7%
  Weight % Isobutanol: 2.3%
[1]; Example 3, refluxed five hours
  liquid composition, isobutanol: 6.1%
  liquid composition, trichloroethylene: 93.9%
  vapor composition, isobutanol: 4.6%
  vapor composition, trichloroethylene: 95.4%
[1]; Example 3: 70 g azeotrope, 30 g agent, refluxed five hours
  Relative Volatility: 1.3
[1]; [7]
  Relative Volatility: 1.3
[2]; [8]
  Relative Volatility: 2.3

## CC(C)CCCO [Isohexyl alcohol]
[1]; [7]
  Relative Volatility: 2.6

## CC(C)CCCCCO [Isooctyl alcohol]
[4]
  Relative Volatility: 1.7

## CCOC(=O)CC(C)C [Ethyl isovalerate]
[3]
  Relative Volatility: 1.5
[2]; [8]
  Relative Volatility: 1.45

## CC(=O)CCC(C)C [Methyl isoamyl ketone]
[3]
  Relative Volatility: 1.4

## CCCCOC(C)=O [n-Butyl acetate]
[3]; [9]
  liquid composition, t-butanol: 31.7%
  liquid composition, trichloroethylene: 68.3%
  vapor composition, t-butanol: 55.5%
  vapor composition, trichloroethylene: 44.5%
[3]; Example 7: 70 g azeotrope, 30 g agent, refluxed fourteen hours
  relative volatility of t-butanol to trichloroethylene: 1.7
[3]
  Relative Volatility: 1.7
[6]; 1 hr
  Relative Volatility (per theoretical plate): 1.63
[6]; 2 hrs
  Relative Volatility (average, t-butanol to trichloroethylene, per theoretical plate): 2.15
[6]; bottoms, 1 hr
  Weight % C2 H Cl3: 6.1%
  Weight % t-Butanol: 93.9%
[6]; bottoms, 2 hrs
  Weight % C2 H Cl3: 4.1%
  Weight % t-Butanol: 95.9%
[6]; [10]
  Weight % C2 H Cl3: 95.9%
  Weight % t-Butanol: 4.1%
[6]; overhead, 1 hr
  Weight % C2 H Cl3: 70.3%
  Weight % t-Butanol: 29.7%
[6]; overhead, 2 hrs
  Weight % C2 H Cl3: 92.2%
  Weight % t-Butanol: 7.8%
[6]; [11]
  Weight % C2 H Cl3: 7.8%
  Weight % t-Butanol: 92.2%

## CC(C)CC(=O)CC(C)C [Diisobutyl ketone]
[3]
  Relative Volatility: 1.4
[2]; [8]
  Relative Volatility: 1.4

## CC(C)CCCCCO [Isooctanol]
[1]; [7]
  Relative Volatility: 1.6

## CCCCCCO [Hexyl alcohol]
[4]
  Relative Volatility: 2.6

## CC1=CC(=O)CC(C)(C)C1 [Isophorone]
[1]; [7]
  Relative Volatility: 1.6
[2]; [8]
  Relative Volatility: 1.45

## CN(C)C=O [Dimethylformamide]
[2]
  Relative Volatility: 4.5

## CC(C)CCCCCCO [Isononyl alcohol]
[4]
  Relative Volatility: 1.35

## CC(=O)CCC(C)=O [Acetonylacetone]
[2]; [8]
  Relative Volatility: 2.6

## OC1CCCCC1 [Cyclohexanol]
[1]; [7]
  Relative Volatility: 2.4
[2]
  Relative Volatility: 3.5

## CC(C)CCO [Isoamyl alcohol]
[1]; [7]
  Relative Volatility: 1.9

## O=S1(=O)CCCC1 [Sulfolane]
[2]; [8]
  Relative Volatility: 2.5

## CC(C)CC(C)O (centres unmarked) [4-Methyl-2-pentanol]
[1]; [7]
  Relative Volatility: 2.7

## CCCC(C)=O [2-Pentanone]
[3]
  Relative Volatility: 1.9

## CCCCCCC(C)=O [2-Octanone]
[2]; [8]
  Relative Volatility: 1.4

## CCC(C)(O)CC [3-Methyl-3-pentanol]
[4]
  Relative Volatility: 1.35

## CCCCC(=O)OCC [Ethyl valerate]
[3]
  Relative Volatility: 1.65
[2]; [8]
  Relative Volatility: 3.0

## CCCCC(CC)CO (centres unmarked) [2-Ethyl-1-hexanol]
[4]
  Relative Volatility: 1.55

## CCCC(=O)OCC(C)C [Isobutyl butyrate]
[3]
  Relative Volatility: 1.65

## CCCCCC(C)=O [2-Heptanone]
[2]; [8]
  Relative Volatility: 1.7

## CCCCCOC(C)=O [n-Amyl acetate]
[3]
  Relative Volatility: 1.7

## 2-Methoxyethyl ether acetate
[3]
  Relative Volatility: 1.85

## CCOCCC(=O)OCC [Ethyl ethoxy propionate]
[3]
  Relative Volatility: 1.45

## CC(=O)CC(C)=O [2,4-Pentanedione]
[3]
  Relative Volatility: 1.4

## CCCCCCCCO [1-Octanol]
[4]
  Relative Volatility: 1.5

## CC(=O)CC(C)C [4-Methyl-2-pentanone]
[3]
  Relative Volatility: 1.5

## CC(=O)CC(C)C [Methyl isobutyl ketone]
[3]
  Relative Volatility: 1.3

## CC(C)CC(O)CC(C)C [Diisobutyl carbinol]
[4]
  Relative Volatility: 1.35
[1]; [7]
  Relative Volatility: 1.6
[2]; [8]
  Relative Volatility: 1.4

## CCOC(=O)CC [Ethyl propionate]
[3]
  Relative Volatility: 2.4

## COCC(C)O (centres unmarked) [1-Methoxy-2-propanol]
[3]
  Relative Volatility: 1.65

## CCCCCCOC(C)=O [Hexyl acetate]
[3]
  Relative Volatility: 1.4

## CC(=O)c1ccccc1 [Acetophenone]
[2]; [8]
  Relative Volatility: 1.6

## CC(C)CCCCCCCO [Isodecyl alcohol]
[2]
  Relative Volatility: 3.6

## CC(=O)O[C@@H]1C[C@H]2CC[C@]1(C)C2(C)C (racemic) [Isobornyl acetate]
[2]; [8]
  Relative Volatility: 1.25

## CC(C)CC(C)O (centres unmarked) [Methyl isobutyl carbinol]
[2]; [8]
  Relative Volatility: 2.4

## CCCCCCCCCCO [n-Decanol]
[1]; [7]
  Relative Volatility: 3.9
[2]; [8]
  Relative Volatility: 2.4

## COCC(C)OC(C)=O (centres unmarked) [1-Methoxy-2-propanol acetate]
[3]
  Relative Volatility: 1.65
[2]
  Relative Volatility: 1.5

## CCCC(C)CO (centres unmarked) [2-Methyl pentanol]
[2]; [8]
  Relative Volatility: 3.5

Source: patent US5118392A, “Separation of trichloroethylene from a butyl alcohol by extractive distillation” (priority 1991, dated 1992)
